What was measured:
[1] = biological target: Vascular endothelial growth factor receptor 2 (Homo sapiens) (UniProt P35968); settings: at 0.1 mg/mL;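 note: VEGFR-2 inhibition read out by HTRF after 1 h, with the receptor's origin stated as unknown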
Description: Inhibition of VEGFR-2 (unknown origin) at 0.1 mg/ml after 1 hr by HTRF assay

MCF7 = test: Antiproliferative activity against human MCF7 cells after 48 hrs by MTT assay; assay type: functional, cell-based; settings: MCF7, 48 h
Chorioallantoic membrane = test: Antiangiogenic activity in Chicken chorioallantoic membrane after 72 hrs relative to control; assay type: functional, cell membranes; settings: Gallus gallus

Vascular endothelial growth factor receptor 2 (Homo sapiens), sequence (P35968 whole entry): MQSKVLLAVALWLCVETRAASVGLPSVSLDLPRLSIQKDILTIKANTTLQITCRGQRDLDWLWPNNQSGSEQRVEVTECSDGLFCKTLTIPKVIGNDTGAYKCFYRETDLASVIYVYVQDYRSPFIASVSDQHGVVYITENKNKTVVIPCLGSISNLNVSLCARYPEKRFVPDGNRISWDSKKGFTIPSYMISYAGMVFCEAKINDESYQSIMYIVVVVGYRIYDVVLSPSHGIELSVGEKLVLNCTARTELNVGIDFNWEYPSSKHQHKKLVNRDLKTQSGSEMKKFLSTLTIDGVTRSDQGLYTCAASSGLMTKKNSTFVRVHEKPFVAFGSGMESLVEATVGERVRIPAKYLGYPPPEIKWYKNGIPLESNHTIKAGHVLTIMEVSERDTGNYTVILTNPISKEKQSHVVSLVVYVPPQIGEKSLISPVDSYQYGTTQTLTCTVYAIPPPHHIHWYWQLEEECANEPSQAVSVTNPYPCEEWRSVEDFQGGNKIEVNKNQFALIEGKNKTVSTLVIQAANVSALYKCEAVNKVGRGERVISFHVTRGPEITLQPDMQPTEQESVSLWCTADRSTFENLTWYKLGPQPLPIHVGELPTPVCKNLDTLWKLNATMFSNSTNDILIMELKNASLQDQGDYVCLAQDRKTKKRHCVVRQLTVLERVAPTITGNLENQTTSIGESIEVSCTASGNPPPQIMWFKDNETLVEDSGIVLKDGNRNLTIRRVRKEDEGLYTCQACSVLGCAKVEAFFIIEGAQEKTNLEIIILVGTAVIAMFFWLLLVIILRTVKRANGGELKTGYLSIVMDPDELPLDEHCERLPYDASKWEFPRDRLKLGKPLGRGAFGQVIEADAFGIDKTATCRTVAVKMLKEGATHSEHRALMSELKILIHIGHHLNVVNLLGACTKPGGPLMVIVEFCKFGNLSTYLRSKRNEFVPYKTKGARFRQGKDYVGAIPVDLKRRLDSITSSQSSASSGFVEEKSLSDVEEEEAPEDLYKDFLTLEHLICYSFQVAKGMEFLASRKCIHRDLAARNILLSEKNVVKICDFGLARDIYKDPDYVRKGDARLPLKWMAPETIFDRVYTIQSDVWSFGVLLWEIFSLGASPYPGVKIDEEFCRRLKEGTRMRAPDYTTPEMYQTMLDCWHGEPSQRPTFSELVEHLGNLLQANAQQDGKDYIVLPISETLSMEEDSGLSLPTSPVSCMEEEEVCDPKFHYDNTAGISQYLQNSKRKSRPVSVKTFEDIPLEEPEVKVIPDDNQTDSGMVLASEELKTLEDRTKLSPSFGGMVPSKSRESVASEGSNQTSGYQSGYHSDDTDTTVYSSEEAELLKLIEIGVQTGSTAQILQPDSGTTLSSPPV

SMILES | inhibition [1] | IC50 (MCF7) | inhibition (Chorioallantoic membrane)
COc1ccc(-c2cc3ccc(OC)cc3c(=O)n2-c2ccc(OCCCN3CCCCC3)cc2)cc1 | 72.8% | > 1000 µM | 
COc1ccc(-c2cc3ccc(OC)cc3c(=O)n2-c2ccc(OCCN(C)C)cc2)cc1 | 66.1% | > 1000 µM | 
COc1ccc(-c2cc3ccc(OC)cc3c(=O)n2-c2ccc(OCCN3CCCCC3)cc2)cc1 | 65.3% | 322 µM | 
COc1ccc(-c2cc3ccc(OC)cc3c(=O)n2-c2ccc(OCCCN3CCCC3)cc2)cc1 | 98.5% | 479 µM | 
COc1ccc(-c2cc3ccc(OC)cc3c(=O)n2-c2ccc(OCCN3CCOCC3)cc2)cc1 | 51.2% | > 1000 µM | 
COc1ccc(-c2cc3ccc(OC)cc3c(=O)n2-c2ccc(OCCN3CCCC3)cc2)cc1 | 83.8% | 863 µM | 
CCN(CC)CCOc1ccc(-n2c(-c3ccc(OC)cc3)cc3ccc(OC)cc3c2=O)cc1 | 92.5% | 383 µM | 
COc1ccc(-c2cc3ccc(OC)cc3c(=O)n2-c2ccc(OCCN3CCN(C)CC3)cc2)cc1 | 79.4% | 429 µM | 

The next molecules have a lower IC50 (MCF7) than those just listed; values first:

inhibition [1] | IC50 (MCF7) | SMILES | inhibition (Chorioallantoic membrane)
79.4% | 18.9 µM | CN(C)CCOc1ccc(-n2c(-c3ccc(O)cc3)cc3ccc(O)cc3c2=O)cc1 | 
48.3% | 12.7 µM | O=c1c2cc(O)ccc2cc(-c2ccc(O)cc2)n1-c1ccc(OCCCN2CCCC2)cc1 | 
49.9% | 11.8 µM | O=c1c2cc(O)ccc2cc(-c2ccc(O)cc2)n1-c1ccc(OCCN2CCCC2)cc1 | 
103% | 9.45 µM | CN1CCN(CCOc2ccc(-n3c(-c4ccc(O)cc4)cc4ccc(O)cc4c3=O)cc2)CC1 | Dose-dependent effect
84.8% | 3.63 µM | O=c1c2cc(O)ccc2cc(-c2ccc(O)cc2)n1-c1ccc(OCCN2CCCCC2)cc1 | 
100% | 2.73 µM | O=c1c2cc(O)ccc2cc(-c2ccc(O)cc2)n1-c1ccc(OCCCN2CCCCC2)cc1 | Dose-dependent effect
 | 1.89 µM | CC/C(=C(\c1ccccc1)c1ccc(OCCN(C)C)cc1)c1ccccc1 [TAMOXIFEN] | 

— ChEMBL document CHEMBL3259730, “Synthesis and biological evaluation of 2,3-diaryl isoquinolinone derivatives as anti-breast cancer agents targeting ERα and VEGFR-2” (Bioorg Med Chem Lett, 2014)
